Results from patent publication US9382204B2, “Inhibitors targeting the DNA-binding domain of human STAT3 for treatment of metastatic cancers” (Indiana University Research and Technology Corporation, priority 2013, dated 2016).
Read-outs that look alike come from different tables or passages of the source.

How the values were obtained:
Assay type in all cases: cell-based, human
[1] = test system: A549 and MDA-MB-231 cells; assay: Luminescence-based glutathione alkylation assay (GSH-Glo); settings: 20 μM inS3-54 48 hours, 15 mM iodoacetamide 30 minutes
Source text: FIG. 5. Effect of inS3-54 glutathione level. […] (***p<0.001).
To further eliminate the possibility that inS3-54 has alkylating activity, we performed luminescence-based glutathione alkylation assay.

[2] = test system: STAT3; assay: STAT3 dimerization (STAT3c non-reducing PAGE, HA/FLAG co-immunoprecipitation) in H1299 cells; settings: 20 μM
Source text: To eliminate the possibility that inS3-54 works by off-targeting to the SH2 domain, we tested if inS3-54 inhibits STAT3 dimerization using FLAG-STAT3c, which forms spontaneous homo-dimers via formation of intermolecular disulfide bond.
However, inS3-54 had no effect on production of dimeric STAT3c separated using non-reducing SDS-PAGE or non-denaturing PAGE (FIG. 6B) while S3I-201, a STAT3 inhibitor that binds to the SH2 domain, inhibited STAT3c dimerization (FIG. 6B). To confirm this observation, we performed a co-immunoprecipitation analysis of HA and FLAG-tagged STAT3.

[3] = test system: STAT3; assay: STAT3-dependent luciferase reporter assay in MDA-MB-231-STAT3 stable cells; settings: 20 μM; for inhibition of luciferase expression compared to DMSO vehicle control: significant = p value less than 0.05; for activity at 20 µM: Homo sapiens
Protocol: FIG. 12. Identification of active inS3-54 analogues. (A) Effects of inS3-54 analogues on STAT3-dependent luciferase expression. MDA-MB-231 cells with stable STAT3-dependent luciferase expression were treated with DMSO control, 20 μM inSTAT3-54 or its analogues (A1-A79), followed by measurement of luciferase activity. (*p<0.05; **p<0.01; ***p<0.001).
MDA-MB-231-STAT3 stable cell line with high level of STAT3-dependent luciferase expression was exposed to candidate compounds at 20 μM in DMSO for 48 hours based on previous studies, and luciferase activity was measured using a luciferase assay kit (Promega, USA), following manufacturer's instructions. The final DMSO concentration in this and following assays was 0.1% (vol/vol).

[4] = mean of experiments, relative to DMSO

SMILES	Rel. luciferase activity (%) 1 ([3]; experiment 1, relative to DMSO)	Rel. luciferase activity (%) 2 ([3]; experiment 2, relative to DMSO)	Rel. luciferase activity (%) 3 ([3]; experiment 3, relative to DMSO)	Rel. luciferase activity (%) Mean [3, 4]	further results
NC(=O)CI [iodoacetamide, reference compound]	–	–	–	–	glutathione level [1]: significantly reduced
Cc1ccc(S(=O)(=O)OCC(=O)Nc2ccc(C(=O)O)c(O)c2)cc1 [Compound S3I-201, reference compound]	–	–	–	–	production of dimeric STAT3c ([2]; 24 hrs, non-reducing SDS-PAGE or non-denaturing PAGE): inhibited; co-immunoprecipitation between HA- and FLAG-tagged STAT3 ([2]; H1299 cells): inhibited
O=C1C(=Cc2ccc([N+](=O)[O-])cc2)C=C(c2ccccc2)N1c1ccc2ccccc2c1 [Compound A46]	156.2%	147.8%	64.9%	122.9%	–
COC(=O)c1ccc(N2C(=O)C(=Cc3ccc(OC)cc3)C=C2c2ccccc2)cc1 [Compound A54]	77.8%	100.8%	41.7%	73.5%	–
COC(=O)c1cccc(N2C(=O)C(=Cc3ccc(OC)cc3)C=C2c2ccccc2)c1 [Compound A50]	168.6%	187.0%	153.6%	169.7%	–
CC(C)(C)c1ccc(N2C(=O)C(=Cc3ccc(Cl)cc3)C=C2c2ccccc2)cc1 [Compound A21]	158.0%	174.7%	159.1%	163.9%	–
CCOC(=O)C1=C(C)N(c2ccc(OCC)cc2)C(=O)/C1=C\c1ccc([N+](=O)[O-])cc1 [Compound A79]	–	–	–	–	inhibition of luciferase expression compared to DMSO vehicle control [3]: significantly inhibited; activity at 20 µM ([3]; experiment 1, relative to DMSO, read-out: Rel. luciferase activity (%) 1): 10.2%; activity at 20 µM ([3]; experiment 2, relative to DMSO, read-out: Rel. luciferase activity (%) 2): 44.8%; activity at 20 µM ([3]; experiment 3, relative to DMSO, read-out: Rel. luciferase activity (%) 3): 55.6%; activity at 20 µM ([3]; mean of experiments, relative to DMSO, read-out: Rel. luciferase activity (%) Mean): 36.9%
COc1cccc(N2C(=O)C(=Cc3ccc([N+](=O)[O-])cc3)C=C2c2ccccc2)c1 [Compound A41]	60.5%	79.5%	81.2%	73.7%	inhibition of luciferase expression compared to DMSO vehicle control [3]: significantly inhibited
CC(=O)c1cccc(N2C(=O)C(=Cc3ccc(-c4ccc([N+](=O)[O-])cc4)o3)C=C2c2ccccc2)c1 [Compound A8]	71.9%	102.6%	57.5%	77.3%	–
O=C(O)c1ccc(N2C(=O)C(=Cc3ccc(-c4ccc(Cl)c(Cl)c4)o3)C=C2c2ccccc2)cc1 [Compound A61]	57.8%	107.0%	40.8%	68.5%	–
COC(=O)c1cc(N2C(=O)C(=Cc3ccc(Cl)cc3)C=C2c2ccccc2)ccc1Cl [Compound A66]	90.3%	110.5%	73.6%	91.5%	–
COC(=O)c1ccc(N2C(=O)C(=Cc3ccc([N+](=O)[O-])cc3)C=C2c2ccccc2)cc1 [Compound A43]	98.6%	100.4%	66.9%	88.6%	–
